From US20230003717A1, “USE OF SYNAPTOTAGMIN-7 IN THE DIAGNOSIS AND TREATMENT OF BIPOLAR DISORDER” (TSINGHUA UNIVERSITY, priority 2020, published 2023) come the findings set out here.

What all share (type): in vivo
Assay [1] relates to Syt7 KO mice. The assay can be described thus: light-dark box (LDB) test, Syt7 KO mice. The following applies: 30 mg/kg intraperitoneal, night phase and day phase. As for the experimental part:
(§1) Since BD patients often had clinical symptoms of anxiety, a light-dark box (LDB) test was conducted to observe anxiety-like behaviors in the Syt7 KO mice.
(§2) Then, the LH/SPT/LDB behavioral paradigms were adopted for detecting the effect of high-dose olanzapine treatment (1.0 mg/kg) on abnormal behaviors of the Syt7 KO mice.
(§3) The effect of clinical BD treatment lithium on behavioral abnormalities in Syt7 KO mice was then tested.

Assay [2] has as its system WT mice. The assay can be described thus: forced swim test (FST), WT mice. The following applies: 30 mg/kg intraperitoneal, night phase and day phase. The method, then:
(§4) The 11 genes in the DG region of the mice were knocked down using shRNA virus. The mice were subject to a forced swim test (FST), and the immobility time of the mice was analyzed. The immobility time is an indicator that reflects the feeling of despair of the mice, and a longer immobility time indicates a more serious feeling of despair. The result is shown in panel C in FIG. 1.
as §3

For assay [3], the system named is WT mice. The experiment in a line: sucrose preference test (SPT), WT mice. The following applies: 30 mg/kg intraperitoneal, night phase and day phase, vs untreated control. As for the experimental part: (§5) Considering that the FST/TS tests can not represent all the characterizations of human disease, a learned helplessness (LH) test and a sucrose preference test (SPT) were conducted. LH is associated with depression. In the LH test, the escape failure number of mice is an indicator for determining the depression of animal due to external pressure. A higher escape failure number indicates a more significant depression. SPT is associated with anhedonia. The proportion of sucrose preference of the mice can serve as an indicator for determining the anhedonia severity of the mice. A higher proportion of sweet preference indicates an enhancement in hedonic feeling.
as §2, §3

The subject of assay [4] is WT mice. The experiment in a line: light-dark box (LDB) test, WT mice. The following applies: 30 mg/kg intraperitoneal. The method, then: as §1, §2, §3
Assay [5] concerns Syt7 KO mice. The experiment in a line: sucrose preference test (SPT), Syt7 KO mice. The following applies: 30 mg/kg intraperitoneal, night phase and day phase, vs untreated control. The method, then: as §5, §2, §3
In assay [6] the test system is Syt7 KO mice. The experiment in a line: forced swim test (FST), Syt7 KO mice. The following applies: 30 mg/kg intraperitoneal, night phase and day phase. As for the experimental part: as §4
The behaviors of Syt7 KO mice (i.e., Syt7-knockout mice) were then examined in the FST test.
Syt7 KO mice were first treated with the atypical antipsychotic olanzapine (OLZ) and observed for the dose dependence (administered with doses of 0.2 mg/kg, 0.5 mg/kg and 1.0 mg/kg) (using ANOVA statistical method). […] Without being limited by theory, this may be associated with an antidepressant effect of olanzapine in treating BD patients.
as §3

In assay [7] the test system is WT mice. The assay can be described thus: learned helplessness (LH) test, WT mice. The following applies: 30 mg/kg intraperitoneal, night phase and day phase, vs untreated control. As for the experimental part:
as §5, §2, §3

In assay [8] the test system is Syt7 KO mice. The assay can be described thus: learned helplessness (LH) test, Syt7 KO mice. The following applies: 30 mg/kg intraperitoneal, night phase and day phase, vs untreated control. The method, then:
as §5, §2, §3

On to `O=C([O-])[O-].[Li+].[Li+]` [Li2CO3], for which the “time spent in the light compartment in the LDB test” value in the assay with Syt7 KO mice [1] is recorded as “reducing the time spent in the light compartment”; in the assay on WT mice [4], “no effect on WT”. The “immobility time in FST” value in the assay on WT mice [2] and with Syt7 KO mice [6] was “no effect” each time. The “sucrose preference (SPT)” value with WT mice [3] and in the assay with Syt7 KO mice [5] was “decreased sucrose preference” each time. Moreover, the “escape numbers in LH test” value in the assay with WT mice [7] and in the assay with Syt7 KO mice [8] was “increased escape numbers” each time.
